Test results reported in US8802597B2, “Herbicidal pyrimidines” (E I du Pont de Nemours and Company, priority 2003, dated 2014).

Key:
[1] = tested on: barnyardgrass (Echinochloa crus-galli); experiment: Test C flooded paddy test; type: in vivo; details: Flood
In short: (§1)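 Plants were grown to the 2-leaf stage in a flooded paddy, treated, and kept in a greenhouse with untreated controls for 12 to 14 days. Injury was then scored visually against controls on a 0–100 scale, where 0 means no effect and 100 complete control.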

[2] = tested on: duck salad (Heteranthera limosa); experiment: Test C flooded paddy test; type: in vivo; details: Flood, scale 0 to 100
In short: as §1

rice (Oryza sativa) = experiment: Test C flooded paddy test; type: in vivo; details: Flood, scale 0 to 100
In short: as §1

[3] = tested on: umbrella sedge (Cyperus difformis); experiment: Test C flooded paddy test; type: in vivo; details: Flood, scale 0 to 100
In short: as §1

[4] = tested on: Italian ryegrass (Lolium multiflorum); experiment: Test C postemergence; type: in vivo
In short: (§2)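 Seeds sown and sprayed preemergence with test compound in non-phytotoxic solvent containing surfactant; postemergence sprays, same formulation, went onto plants 2 to 18 cm tall (1- to 4-leaf stage). Plants held in greenhouse 12 to 14 days, then visually rated against untreated controls on a 0–100 scale (0 no effect, 100 complete control).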

[5] = tested on: blackgrass (Alopecurus myosuroides); experiment: Test C postemergence; type: in vivo
In short: as §2

[6] = tested on: canarygrass (Phalaris minor); experiment: Test C postemergence; type: in vivo
In short: as §2

[7] = tested on: downy brome (Bromus tectorum); experiment: Test C postemergence; type: in vivo
In short: as §2

[8] = tested on: green foxtail (Setaria viridis); experiment: Test C postemergence; type: in vivo
In short: as §2

[9] = tested on: wheat (Triticum aestivum); experiment: Test C postemergence; type: in vivo
In short: as §2

[10] = tested on: windgrass (Apera spica-venti); experiment: Test C postemergence; type: in vivo
In short: as §2

[11] = tested on: winter barley (Hordeum vulgare); experiment: Test C postemergence; type: in vivo
In short: as §2

[12] = tested on: late watergrass (Echinochloa oryzicola); experiment: Test E flooded paddy water application; type: in vivo; details: Flood, 21 days, scale 0 to 100 (0 no effect, 100 complete control)
In short: (§3)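 Greenhouse pots of Tama silt loam with weeds and rice at 2.0–2.5-leaf stage, flooded to 3 cm; compounds applied directly into paddy water, depth maintained. Visual rating versus untreated controls after 21 days, 0 (no effect) to 100 (complete control); 29.5/26.7 °C, 16-h photoperiod.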

[13] = tested on: rice flatsedge (Cyperus iria); experiment: Test E flooded paddy water application; type: in vivo; details: Flood, 21 days, scale 0 to 100 (0 no effect, 100 complete control)
In short: as §3

[14] = tested on: water seeded rice seedlings (Oryza sativa cv. ‘Japonica-M202’); experiment: Test E flooded paddy water application; type: in vivo; details: Flood, 21 days, scale 0 to 100 (0 no effect, 100 complete control)
In short: as §3

## CCOC(=O)c1nc(C2CC2)nc(N)c1Br [Compound 1, ethyl 6-amino-5-bromo-2-cyclopropyl-4-pyrimidinecarboxylate]
[1]; 62 g ai/ha, scale 0 to 100
  Plant response rating, Barnyardgrass: 0
[1]; 125 g ai/ha, scale 0 to 100
  Plant response rating, Barnyardgrass: 0
[1]; 250 g ai/ha, scale 0 to 100
  Plant response rating, Barnyardgrass: 15
[1]; 500 g ai/ha, scale 0 to 100 (0 no effect, 100 complete control)
  Plant response rating, Barnyardgrass: 25
[2]; 62 g ai/ha
  Plant response rating, Ducksalad: 0
[2]; 250 g ai/ha
  Plant response rating, Ducksalad: 0
[2]; 500 g ai/ha
  Plant response rating, Ducksalad: 0
Rice (Oryza sativa); 62 g ai/ha
  Plant response rating, Rice: 0
Rice (Oryza sativa); 125 g ai/ha
  Plant response rating, Rice: 0
Rice (Oryza sativa); 250 g ai/ha
  Plant response rating, Rice: 0
Rice (Oryza sativa); 500 g ai/ha
  Plant response rating, Rice: 0
[3]; 62 g ai/ha
  Plant response rating, Sedge, Umbrella: 0
[3]; 250 g ai/ha
  Plant response rating, Sedge, Umbrella: 0
[3]; 500 g ai/ha
  Plant response rating, Sedge, Umbrella: 0
other
  melting point: 107 to 108 °C

## Nc1nc(-c2ccc(Cl)cc2)nc(C(=O)O)c1Cl [Compound 65, 6-amino-5-chloro-2-(4-chlorophenyl)-4-pyrimidinecarboxylic acid]
[4]; 16 g ai/ha
  Plant response rating (scale of 0 to 100), Ryegrass, Italian: 10
[4]; 31 g ai/ha
  Plant response rating (scale of 0 to 100), Ryegrass, Italian: 50
[4]; 62 g ai/ha
  Plant response rating (scale of 0 to 100), Ryegrass, Italian: 55
[4]; Lolium multiflorum, post-emergence, 125 g ai/ha, scale 0 to 100 (0 no effect, 100 complete control), read-out: Ryegrass, Italian plant response rating
  pest or weed control at 125 g/ha: 60%
[5]; 16 g ai/ha
  Plant response rating (scale of 0 to 100), Blackgrass: 50
[5]; 31 g ai/ha
  Plant response rating (scale of 0 to 100), Blackgrass: 60
[5]; 62 g ai/ha
  Plant response rating (scale of 0 to 100), Blackgrass: 65
[5]; Alopecurus myosuroides, post-emergence, 125 g ai/ha, scale 0 to 100 (0 no effect, 100 complete control), read-out: Blackgrass plant response rating
  pest or weed control at 125 g/ha: 65%
[6]; 16 g ai/ha
  Plant response rating (scale of 0 to 100), Canarygrass: 30
[6]; 31 g ai/ha
  Plant response rating (scale of 0 to 100), Canarygrass: 30
[6]; 62 g ai/ha
  Plant response rating (scale of 0 to 100), Canarygrass: 35
[6]; Phalaris minor, post-emergence, 125 g ai/ha, scale 0 to 100 (0 no effect, 100 complete control), read-out: Canarygrass plant response rating
  pest or weed control at 125 g/ha: 45%
[7]; 16 g ai/ha
  Plant response rating (scale of 0 to 100), Bromegrass, Downy: 40
[7]; 31 g ai/ha
  Plant response rating (scale of 0 to 100), Bromegrass, Downy: 50
[7]; 62 g ai/ha
  Plant response rating (scale of 0 to 100), Bromegrass, Downy: 50
[7]; Bromus tectorum, post-emergence, 125 g ai/ha, scale 0 to 100 (0 no effect, 100 complete control), read-out: Bromegrass, Downy plant response rating
  pest or weed control at 125 g/ha: 55%
[8]; 16 g ai/ha
  Plant response rating (scale of 0 to 100), Foxtail, Green: 50
[8]; 31 g ai/ha
  Plant response rating (scale of 0 to 100), Foxtail, Green: 55
[8]; 62 g ai/ha
  Plant response rating (scale of 0 to 100), Foxtail, Green: 60
[8]; Setaria viridis, post-emergence, 125 g ai/ha, scale 0 to 100 (0 no effect, 100 complete control), read-out: Foxtail, Green plant response rating
  pest or weed control at 125 g/ha: 70%
[9]; 16 g ai/ha
  Plant response rating (scale of 0 to 100), Wheat: 40
[9]; 31 g ai/ha
  Plant response rating (scale of 0 to 100), Wheat: 40
[9]; 62 g ai/ha
  Plant response rating (scale of 0 to 100), Wheat: 45
[9]; Triticum aestivum, post-emergence, 125 g ai/ha, scale 0 to 100 (0 no effect, 100 complete control), read-out: Wheat plant response rating
  plant injury at 125 g/ha: 45%
[10]; 16 g ai/ha
  Plant response rating (scale of 0 to 100), Windgrass: 50
[10]; 31 g ai/ha
  Plant response rating (scale of 0 to 100), Windgrass: 60
[10]; 62 g ai/ha
  Plant response rating (scale of 0 to 100), Windgrass: 70
[10]; Apera spica-venti, post-emergence, 125 g ai/ha, scale 0 to 100 (0 no effect, 100 complete control), read-out: Windgrass plant response rating
  pest or weed control at 125 g/ha: 70%
[11]; 16 g ai/ha
  Plant response rating (scale of 0 to 100), Barley: 40
[11]; 31 g ai/ha
  Plant response rating (scale of 0 to 100), Barley: 40
[11]; Hordeum vulgare, post-emergence, 62 g ai/ha, scale 0 to 100 (0 no effect, 100 complete control), read-out: Barley plant response rating
  plant injury at 62 g/ha: 50%
[11]; Hordeum vulgare, post-emergence, 125 g ai/ha, scale 0 to 100 (0 no effect, 100 complete control), read-out: Barley plant response rating
  plant injury at 125 g/ha: 50%
[12]; 32 g ai/ha
  Watergrass, Late plant response rating: 0
[12]; 64 g ai/ha
  Watergrass, Late plant response rating: 0
[12]; 125 g ai/ha
  Watergrass, Late plant response rating: 0
[12]; 250 g ai/ha
  Watergrass, Late plant response rating: 25
[12]; 16 g ai/ha
  Plant response rating, Watergrass, Late: 0
[13]; 32 g ai/ha
  Flatsedge, Rice plant response rating: 80
[13]; 64 g ai/ha
  Flatsedge, Rice plant response rating: 100
[13]; 125 g ai/ha
  Flatsedge, Rice plant response rating: 100
[13]; 250 g ai/ha
  Flatsedge, Rice plant response rating: 100
[13]; 16 g ai/ha
  Plant response rating, Flatsedge, Rice: 0
[14]; 32 g ai/ha
  Rice, Water Seeded plant response rating: 0
[14]; 64 g ai/ha
  Rice, Water Seeded plant response rating: 0
[14]; 125 g ai/ha
  Rice, Water Seeded plant response rating: 0
[14]; 250 g ai/ha
  Rice, Water Seeded plant response rating: 10
[14]; 16 g ai/ha
  Plant response rating, Rice, Water Seeded: 0
other
  melting point: 158 to 160 °C
